Reference: US20170072007A1, “PHANTOM PHENOMENA TREATMENT” (OTOLANUM AG, priority 2005, published 2017)
Entries after “also recorded” stand apart in the source; their conditions may differ. Like-named read-outs stand apart in the source and are kept apart here.

Assays:
[1] = tested on: BDNF exon IV expression in cochlear neurons; test: Salicylate-induced acute tinnitus: effect of test substance on BDNF/c-fos expression in cochlear neurons (RT-PCR); assay type: in vivo, rat
[2] = tested on: Arc expression in auditory cortex; test: Salicylate-induced acute tinnitus: effect of test substance on gene expression in the auditory cortex (RT-PCR); assay type: in vivo, rat; details: systemic 0.5 mg/kg, 2.5 hours after 350 mg/kg salicylate, n=12, p<0.05
Method: Rnase H reverse transcriptase according to the Invitrogen protocol.
Two and half hours after the induction of acute tinnitus by injection of 350 mg/kg salicylate, the animals received systemic administration of midazolam (Dormicum, Roche, Grenzach-Wyhlen, Germany) (0.5 mg/kg of body weight), and gene expression was investigated after removal of organs with the aid of RT-PCR. […] Statistical analysis was carried out with Student's T test; *=p<0.05.
In a further experiment corresponding to the above, a GABA receptor agonist was administered, under conditions which were otherwise identical, not systemically but locally into the niche of the round window.

[3] = before and 20 hours after local salicylate, 5 μl, 70 mg/kg, n=5
Description: Adult female Wistar rats weighing between 280 and 300 grams were used for the experiments. The treatment and handling of these animals took place in conformity with the institutional guidelines of Tübingen University, Tierforschungsanstalt.
(§1) The rats were anesthetized intraperitoneally by the method of Guitton, M. J. et al. (2003), Salicylate induces tinnitus through activation of cochlear NMDA receptors, J. Neurosci. 23, pages 3944 to 3952, in order to place a so-called gel foam (Gelita Tampon; B. Braun Medical, Melsungen, Germany) over the round window of both ears. The gel foam was impregnated as indicated with salicylate, which was diluted in artificial perilymph solution (70 mg/ml), or with the corresponding volume of artificial perilymph alone. The gel foam was in the niche of the round window as described; Guitton J. et al. (loc. cit.). The salicylate was locally administered thus for 20 hours. After this time, the animals were sacrificed and the cochlea and the auditory cortex were removed.
The anesthesia of the animals and the ABR screening was carried out as described previously; cf. Knipper, M. et al. (2000), loc. cit.; Schimmang, T. et al. (2003), Lack of BDNF and trkB signalling in the postnatal cochlea leads to a spatial reshaping of innervation along the tonotopic axis and hearing loss, Development 130, pages 4741 to 4750. […]

[4] = tested on: c-fos, BDNF exon-III and BDNF exon IV transcripts in cochlear tissue
Method: as §1

[5] = tested on: c-fos, BDNF exon-III and BDNF exon IV in cochlear spiral ganglia; details: local 5 μl 70 mg/ml and systemic 350 mg/kg, versus artificial perilymph
Method: Carbon dioxide was used for deep anesthesia of the animals, which were then decapitated. The cochleae were isolated and prepared as described previously; cf. […] Briefly, the cochleae were fixed by immersion in 2% paraformaldehyde, 125 mM sucrose in 100 mM phosphate-buffered saline (PBS), pH 7.4, for two hours and, following the fixation, decalcified in rapid bond decalcifier (#904687, Eurobio, Fisher-Scientific, 61130 Nidderau, Germany) for 45 minutes, subsequently followed by incubation in 25% sucrose, 1 mM protease inhibitor (Pefabloc, Roche) in Hanks buffered saline overnight. Following the overnight incubation, the cochleae were embedded in O.C.T. compound (Miles Laboratories, Elkhart, Ind., USA). The tissues were then cryosectioned with a thickness of 10 μm for the in situ hybridization, stored on SuperFrost*/plus slides and stored at −20° C. before use.
Genomic DNA from rat liver tissue was isolated using the Easy DNA kit from Invitrogen in accordance with the manufacturer's information. A polymerase chain reaction was carried out in order to amplify all four non-coding 5′ exons of the BDNF gene.
In the PCR reaction, the genomic DNA was first denatured at 94° C. for four minutes, followed by 30 cycles of one minute at 94° C., one minute at 55° C. and one minute at 72° C. The extension reaction was carried out at 70° C. for 10 minutes. […]

[6] = tested on: c-fos, BDNF exon-III, BDNF exon-IV and Arc in auditory cortex
Method: Total RNA was isolated using the total RNeasy kit from Qiagen both from the cochlea and from brain tissue and was treated with DNase (Ambion) in order to remove DNA contaminants. The RNA was then purified and the concentration was determined by spectrometric measurements. Reverse transcription of the brain tissue was carried out in a reaction volume of 20 μl using 1 μg of total RNA as template and [sequence] II Rnase H reverse transcriptase according to the Invitrogen protocol. Because of the limited amount of RNA in the cochlear tissues, Qiagen Senscript reverse transcriptase was used, as described in the Qiagen protocol, using 50 ng of total RNA as template. The number of cycles and the annealing temperature for the PCR was optimized so that the signals obtained for BDNF, c-fos and glyceraldehyde-3-phosphate dehydrogenase (GAPDH) were not saturated.
The PCR was carried out in a final reaction volume of 25 μl, using both primers for GAPDH and the activity-dependent genes simultaneously. In this duplex PCR reaction, a housekeeping gene in the same PCR reaction represents an internal control, so that the intensity of the activity-dependent gene can be compared unambiguously with the control and the treated samples. PCR ready-to-go beads from Amersham Pharmacia were used in order to ensure a standardization of the PCR conditions and to reduce contamination during pipetting. Finally, the PCR products were analyzed in a 2% agarose gel which was visualized using an ethidium bromide stain and densitometric analysis using an Alpha Imager 2200 from Biometra. The intensity of the amplified activity-dependent gene was normalized for each reaction to the level of the coamplified GAPDH. The amplification conditions for arc, BDNF, c-fos and GAPDH were for the initial denaturation phase of 94° C. for three minutes, 30 cycles each of one minute of denaturation (94° C.), one minute of annealing (54° C.), 1.5 minutes of extension (72° C.) and a final extension phase of ten minutes at 72° C.
The auditory cortices investigated were obtained from animals in which the cochlea were investigated for the dose-dependent effect of salicylate, the mRNA was isolated and an RT-PCR was carried out as described under Material and Methods.

[7] = increasing amounts of salicylate locally into round window niche, n=3

SMILES: Cc1ncc2n1-c1ccc(Cl)cc1C(c1ccccc1F)=NC2 [midazolam]
- effect of salicylate on the expression of BDNF exon-IV in cochlear neurons ([1]; systemic 0.5 mg/kg, 2.5 hours after 350 mg/kg salicylate, n=7, p<0.05): significant reduction; also recorded: significantly reduced; also recorded: inhibited
- effect on salicylate-changed expression of c-fos ([1]; systemic 0.5 mg/kg, 2.5 hours after 350 mg/kg salicylate, n=7 to 12): remains incapable of being influenced
- effect of salicylate on the expression of Arc in the auditory cortex [2]: significant reduction

SMILES: O=C(O)c1ccccc1O [salicylate]
- frequency-specific ABR screening [3]: no loss of hearing
- increase in the expression of BDNF exon-IV (densitometric analysis) ([4]; cochlea, n=8, p<0.05): 49±12%
- increase in the expression of c-fos (densitometric analysis) ([4]; cochlea, n=8, p<0.05): 69±11%
- c-fos expression in cochlear tissue ([4]; gel foam local, 5 μl, 70 mg/ml, found at 20 hours, not at three hours): significant upregulation
- expression of the BDNF exon-IV transcript in cochlear neurons [4, 7]: increased
- expression of BDNF exon-IV and c-fos in cochlear neurons ([4]; systemic 350 mg/kg salicylate): elevated expression
- c-fos expression in cochlear tissue ([4]; systemic i.p. 350 mg/kg of body weight, after three hours): upregulation
- hybridization signals for c-fos, BDNF exon-III and BDNF exon IV in the middle basal cochlear turn [5]: significantly increased
- decrease in the expression of BDNF exon-IV (densitometric analysis) ([6]; auditory cortex, n=8, p<0.05): 49±12%
- decrease in the expression of c-fos (densitometric analysis) ([6]; auditory cortex, n=8, p<0.05): 69±11%
- expression of Arc in the auditory cortex [6, 7]: decreased
- expression of c-fos, BDNF exon-III and BDNF exon-IV in the auditory cortex ([6]; local administration, all dosages of salicylate): reduction
- expression of Arc in the primary auditory cortex ([6]; systemic 350 mg/kg salicylate): decrease

SMILES: COC(=O)C1=C(C)NC(C)=C(C(=O)OC(C)C)C1c1cccc2nonc12 (centres unmarked) [isradipine]
- salicylate-induced upregulation of BDNF (exon IV) in cochlear neurons ([1]; 10 μl of 10 mM solution locally at round window 22 hours before tissue removal, salicylate 350 mg/kg systemic 3 hours before): inhibited
